Literature values, collected in patent publication US10695309B2 (Western New England University, priority 2017, dated 2020).

Conditions: for half-life: in vivo

What does the source list for N[C@@H](Cc1cc(I)c(Oc2ccc(O)c(I)c2)c(I)c1)C(=O)O [Formulation T3, Liothyronine]?
half-life: less than 2 days; bioavailability (reported): 69-99%

For N[C@@H](Cc1cc(I)c(Oc2cc(I)c(O)c(I)c2)c(I)c1)C(=O)O [Formulation T4, levothyroxine], which half-life is on record?
Its half-life is 140 to 170 h.
